Experimental data as given in patent publication US7449447B2, “Peptidomimetic NS3-serine protease inhibitors of hepatitis C virus” (priority 2003, dated 2008).
pKi: −log10 of the molar value. Where a SMILES comes first, the peptide text is derived from it. [ ]: non-standard residue; d: D form. The star is where a group is joined. Pro(3R,4S-CMe2) = CC1(C)[C@@H]2[C@@H](C(=O)O)NC[C@@H]21; Abu(4,4-F2) = N[C@@H](CC(F)F)C(=O)O; Phg = N[C@H](C(=O)O)c1ccccc1; Tle = CC(C)(C)[C@H](N)C(=O)O; Boc = CC(C)(C)OC(=O)*; βAla = NCCC(=O)O

Target: T1, HCV NS3/NS4a serine protease (Hepatitis C virus genotype 1b, UniProt P26663)
T1 construct: amino terminus of the NS3 protease domain (amino acids 3-181) with a tetrapeptide linker; made in house; host or cells: E. coli
T1 sequence (P26663 1013-1207, looked up, natural form): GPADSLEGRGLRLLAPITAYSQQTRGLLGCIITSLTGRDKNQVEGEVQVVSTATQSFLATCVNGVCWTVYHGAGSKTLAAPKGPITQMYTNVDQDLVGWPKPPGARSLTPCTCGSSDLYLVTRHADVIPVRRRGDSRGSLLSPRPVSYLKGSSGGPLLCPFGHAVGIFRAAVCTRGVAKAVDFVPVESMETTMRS
Assay: Spectrophotometric assay for HCV protease inhibitory activity (chromogenic ester substrates)
Type: biochemical, hepatitis C virus (strain 1b)
Conditions: Ki Rating, Table 2; single chain NS4A21-32-GSGS-NS3 3-181 protease, 30° C., pH 6.5
Description: Spectrophotometric Assay: Spectrophotometric assays for the HCV serine protease were performed on the inventive compounds by following the procedure described by R. Zhang et al., Analytical Biochemistry, 270 (1999) 268-275, the disclosure of which is incorporated herein by reference. The assay based on the proteolysis of chromogenic ester substrates is suitable for the continuous monitoring of HCV NS3 protease activity.
HCV NS3 protease (strain 1b) and its NS4A cofactor were constructed as a recombinant single chain protein. The NS4A cofactor domain (amino acid residues 21-32) was fused in frame to the amino terminus of the NS3 protease domain (amino acids 3-181) with a tetrapeptide linker. This NS4A 21-32-GSGS-NS33-181 construct was then expressed in E. coli and purified to >90% homogeneity. Kinetic parameters were determined and found to be the same as that of the full length NS31-631/NS4A1-54 protein complex produced in the baculovirus system (D. L. Sali et al, Biochemistry, 37 (1998) 3392-340). The details of the cloning, expression, purification and kinetic analysis of the of the single chain recombinant protease have been previously described (S. S. Taremi, et al. Protein Science. 7 (1998) 2143-2149.
Protein concentrations were determined by the Biorad dye method using recombinant HCV protease standards previously quantified by amino acid analysis. Prior to assay initiation, the enzyme storage buffer (50 mM sodium phosphate pH 8.0, 300 mM NaCl, 10% glycerol, 0.05% lauryl maltoside and 10 mM DTT) was exchanged for the assay buffer (25 mM MOPS pH 6.5, 300 mM NaCl, 10% glycerol, 0.05% lauryl maltoside, 5 μM EDTA and 5 μM DTT) utilizing a Biorad Bio-Spin P-6 prepacked column.
Protease Assay: HCV protease assays were performed at 30° C. using a 200 μl reaction mix in a 96-well microtiter plate. Assay buffer conditions (25 mM MOPS pH 6.5, 300 mM NaCl, 10% glycerol, 0.05% lauryl maltoside, 5 μM EDTA and 5 μM DTT) were optimized for the NS3/NS4A heterodimer (D. L. Sali et al, ibid.)). Typically, 100 μl mixtures of buffer, substrate and inhibitor were placed in wells and allowed to preincubate at 30° C. for approximately 3 minutes. One hundred μls of pre-warmed protease (30° C.) in assay buffer, was then used to initiate the reaction to produce a final concentration of 1.3 nM HCV). The Substrate cleavage by the protease was monitored over 60 minutes by measuring the release of the phenylazophenol (PAP) product at an absorbance of 370 nm with a continuous read every 30 seconds using a SpectraMax Plus microtiter plate reader (Molecular Devices, Sunnyvale, Calif.). Background hydrolysis of the substrate was subtracted. Inhibitors were tested over a range of concentrations (final DMSO concentration 4%)
Evaluation of Inhibitors The inhibition constants (Ki) for the competitive inhibitors were determined experimentally at fixed concentrations of enzyme and substrate by plotting vo/vi vs. inhibitor concentration ([I]o) according to the rearranged Michaelis-Menten equation for competitive inhibition kinetics: vo/vi=1+[I]o/(Ki(1+[S]o/Km)), where vo is the uninhibited initial velocity, vi is the initial velocity in the presence of inhibitor at any given inhibitor concentration ([I]o) and [S]o is the substrate concentration used. The resulting data were fitted using linear regression and the resulting slope, 1/(Ki(1+[S]o/Km), was used to calculate the Ki value.

`CC(C)(C)OC(=O)CCNC(=O)[C@H](CC(F)F)NC(=O)[C@@H]1[C@@H]2[C@H](CN1C(=O)[C@@H](NC(=O)OC(C)(C)C)C(C)(C)C)C2(C)C` [Example 162] and `CCOC(=O)CCNC(=O)[C@H](CC(F)F)NC(=O)[C@@H]1[C@@H]2[C@H](CN1C(=O)[C@@H](NC(=O)OC(C)(C)C)C(C)(C)C)C2(C)C` [Example 163] cannot be ordered by pKi: under 6.30 for the first, under 6.30 for the second.

`CC1(NC(=O)N[C@H](C(=O)N2C[C@H]3[C@@H]([C@H]2C(=O)NC(CC(F)F)C(=O)O)C3(C)C)C(C)(C)C)CCCCC1` (stereo partly drawn) [Example 156] and `CC1(NC(=O)N[C@H](C(=O)N2C[C@H]3[C@@H]([C@H]2C(=O)NC(CC(F)F)C(=O)NCCc2ccccc2)C3(C)C)C(C)(C)C)CCCCC1` (stereo partly drawn) [Example 145] cannot be ordered by pKi: under 6.30 for the first, under 6.30 for the second.

`CC(C)[C@H](NC(=O)N[C@H](C(=O)N1C[C@H]2[C@@H]([C@H]1C(=O)N[C@@H](CC(F)F)C(=O)NCCc1ccc(C(=O)O)cc1)C2(C)C)C(C)(C)C)C(=O)c1ccccc1` [Example 132] and `CC(C)[C@H](NC(=O)N[C@H](C(=O)N1C[C@H]2[C@@H]([C@H]1C(=O)N[C@@H](CC(F)F)C(=O)NCCc1ccc(C(=O)O)cc1)C2(C)C)C(C)(C)C)C(=O)OC(C)(C)C` [Example 125] fall in the same range of pKi: 6.30 to 7.00 for the first, 6.30 to 7.00 for the second.

`CN(C)C(=O)[C@@H](NC(=O)CCNC(=O)[C@H](CC(F)F)NC(=O)[C@@H]1[C@@H]2[C@H](CN1C(=O)[C@@H](NC(=O)OC(C)(C)C)C(C)(C)C)C2(C)C)c1ccccc1` [Example 168] (Boc-[Tle][Pro(3R,4S-CMe2)][Abu(4,4-F2)][βAla][Phg]-NMe2) and `CC(C)(C)OC(=O)N[C@H](C(=O)N1C[C@H]2[C@@H]([C@H]1C(=O)NC(CC(F)F)C(=O)NCCc1ccccc1)C2(C)C)C(C)(C)C` (stereo partly drawn) [Example 151] cannot be ordered by pKi: under 6.30 for the first, under 6.30 for the second.

`COC(=O)c1ccc(CCNC(=O)[C@H](CC(F)F)NC(=O)[C@@H]2[C@@H]3[C@H](CN2C(=O)[C@@H](NC(=O)N[C@H](C(=O)OC(C)(C)C)C(C)(C)C)C(C)(C)C)C3(C)C)cc1` [Example 139] and `CN(C[C@@H](NC(=O)N[C@H](C(=O)N1C[C@H]2[C@@H]([C@H]1C(=O)NC(CC(F)F)C(=O)NCCc1ccc(C(N)=O)cc1)C2(C)C)C(C)(C)C)C(C)(C)C)S(C)(=O)=O` (stereo partly drawn) [Example 128] fall in the same range of pKi: 6.30 to 7.00 for the first, 6.30 to 7.00 for the second.

In the case of `CC(C)(C)OC(=O)N[C@H](C(=O)N1C[C@H]2[C@@H]([C@H]1C(=O)NC(CC(F)F)C(=O)O)C2(C)C)C(C)(C)C` (stereo partly drawn) [Example 167], the pKi was under 6.30.

Same assay, conditions: Ki, Table 1; single chain NS4A21-32-GSGS-NS3 3-181 protease, 30° C., pH 6.5

Work on `COC(=O)c1ccc(CCNC(=O)[C@H](CC(F)F)NC(=O)[C@@H]2[C@@H]3[C@H](CN2C(=O)[C@@H](NC(=O)N[C@H](CN(C)S(=O)(=O)c2ccccc2)C(C)C)C(C)(C)C)C3(C)C)cc1` [Example 116] yielded a pKi of 7.00.

Same assay, conditions: Ki, Table 3; rating; single chain NS4A21-32-GSGS-NS3 3-181 protease, 30° C., pH 6.5

`CN(C[C@@H](NC(=O)N[C@H](C(=O)N1C[C@H]2[C@@H]([C@H]1C(=O)N[C@@H](CC(F)F)C(=O)NCCc1cccc(C(F)(F)F)c1)C2(C)C)C(C)(C)C)C(C)(C)C)S(C)(=O)=O` [Example 282] and `CN(C[C@@H](NC(=O)N[C@H](C(=O)N1C[C@H]2[C@@H]([C@H]1C(=O)N[C@@H](CC(F)F)C(=O)NCCc1cccc(F)c1)C2(C)C)C(C)(C)C)C(C)(C)C)S(C)(=O)=O` [Example 264] cannot be ordered by pKi: over 7.00 for the first, over 7.00 for the second.

`CN(C[C@@H](NC(=O)N[C@H](C(=O)N1C[C@H]2[C@@H]([C@H]1C(=O)N[C@@H](CC(F)F)C(=O)NCCc1ccc(Br)cc1)C2(C)C)C(C)(C)C)C(C)(C)C)S(C)(=O)=O` [Example 290] and `CN(C[C@@H](NC(=O)N[C@H](C(=O)N1C[C@H]2[C@@H]([C@H]1C(=O)N[C@@H](CC(F)F)C(=O)NCCc1ccc(O)cc1)C2(C)C)C(C)(C)C)C(C)(C)C)S(C)(=O)=O` [Example 245] cannot be ordered by pKi: over 7.00 for the first, over 7.00 for the second.

Going from `CN(C[C@@H](NC(=O)N[C@H](C(=O)N1C[C@H]2[C@@H]([C@H]1C(=O)N[C@@H](CC(F)F)C(=O)NCCOc1ccccc1)C2(C)C)C(C)(C)C)C(C)(C)C)S(C)(=O)=O` [Example 221] to `CN(C[C@@H](NC(=O)N[C@H](C(=O)N1C[C@H]2[C@@H]([C@H]1C(=O)N[C@@H](CC(F)F)C(=O)NCCc1ccccc1)C2(C)C)C(C)(C)C)C(C)(C)C)S(C)(=O)=O` [Example 258], the pKi rises from under 6.30 to over 7.00.

`COc1ccc(CCNC(=O)[C@H](CC(F)F)NC(=O)[C@@H]2[C@@H]3[C@H](CN2C(=O)[C@@H](NC(=O)N[C@H](CN(C)S(C)(=O)=O)C(C)(C)C)C(C)(C)C)C3(C)C)cc1OC` [Example 280] and `COc1ccc(Br)cc1CCNC(=O)[C@H](CC(F)F)NC(=O)[C@@H]1[C@@H]2[C@H](CN1C(=O)[C@@H](NC(=O)N[C@H](CN(C)S(C)(=O)=O)C(C)(C)C)C(C)(C)C)C2(C)C` [Example 300] cannot be ordered by pKi: over 7.00 for the first, over 7.00 for the second.

Compared with `COc1ccccc1CNC(=O)[C@H](CC(F)F)NC(=O)[C@@H]1[C@@H]2[C@H](CN1C(=O)[C@@H](NC(=O)N[C@H](CN(C)S(C)(=O)=O)C(C)(C)C)C(C)(C)C)C2(C)C` [Example 222], `CC(CNC(=O)[C@H](CC(F)F)NC(=O)[C@@H]1[C@@H]2[C@H](CN1C(=O)[C@@H](NC(=O)N[C@H](CN(C)S(C)(=O)=O)C(C)(C)C)C(C)(C)C)C2(C)C)c1ccccc1` (stereo partly drawn) [Example 219] is higher in pKi: under 6.30 for the first, over 7.00 for the second. The second binds more tightly here.

`CN(C[C@@H](NC(=O)N[C@H](C(=O)N1C[C@H]2[C@@H]([C@H]1C(=O)N[C@@H](CC(F)F)C(=O)NC1CCCC1)C2(C)C)C(C)(C)C)C(C)(C)C)S(C)(=O)=O` [Example 207] and `CN(C[C@@H](NC(=O)N[C@H](C(=O)N1C[C@H]2[C@@H]([C@H]1C(=O)N[C@@H](CC(F)F)C(=O)NCC1CCCCC1)C2(C)C)C(C)(C)C)C(C)(C)C)S(C)(=O)=O` [Example 213] cannot be ordered by pKi: under 6.30 for the first, under 6.30 for the second.

`Cc1ccc(CCNC(=O)[C@H](CC(F)F)NC(=O)[C@@H]2[C@@H]3[C@H](CN2C(=O)[C@@H](NC(=O)N[C@H](CN(C)S(C)(=O)=O)C(C)(C)C)C(C)(C)C)C3(C)C)c(C)c1` [Example 266] and `CN(C[C@@H](NC(=O)N[C@H](C(=O)N1C[C@H]2[C@@H]([C@H]1C(=O)N[C@@H](CC(F)F)C(=O)NCCc1ccc(O)c(O)c1)C2(C)C)C(C)(C)C)C(C)(C)C)S(C)(=O)=O` [Example 298] cannot be ordered by pKi: over 7.00 for the first, over 7.00 for the second.

First: CN(C[C@@H](NC(=O)N[C@H](C(=O)N1C[C@H]2[C@@H]([C@H]1C(=O)N[C@@H](CC(F)F)C(=O)NCCCc1ccccc1)C2(C)C)C(C)(C)C)C(C)(C)C)S(C)(=O)=O [Example 220]
Second: CN(C[C@@H](NC(=O)N[C@H](C(=O)N1C[C@H]2[C@@H]([C@H]1C(=O)N[C@@H](CC(F)F)C(=O)NCCc1cccc(Cl)c1)C2(C)C)C(C)(C)C)C(C)(C)C)S(C)(=O)=O [Example 202]
The pKi of the first is lower: under 6.30 for the first, over 7.00 for the second. The second binds more tightly here.

Compared with `CC(NC(=O)[C@H](CC(F)F)NC(=O)[C@@H]1[C@@H]2[C@H](CN1C(=O)[C@@H](NC(=O)N[C@H](CN(C)S(C)(=O)=O)C(C)(C)C)C(C)(C)C)C2(C)C)c1ccccc1` (stereo partly drawn) [Example 215], `CN(C[C@@H](NC(=O)N[C@H](C(=O)N1C[C@H]2[C@@H]([C@H]1C(=O)N[C@@H](CC(F)F)C(=O)NCCc1ccncc1)C2(C)C)C(C)(C)C)C(C)(C)C)S(C)(=O)=O` [Example 237] is higher in pKi: under 6.30 for the first, over 7.00 for the second. The second binds more tightly here.

`CN(C[C@@H](NC(=O)N[C@H](C(=O)N1C[C@H]2[C@@H]([C@H]1C(=O)N[C@@H](CC(F)F)C(=O)NCCc1ccc(S(N)(=O)=O)cc1)C2(C)C)C(C)(C)C)C(C)(C)C)S(C)(=O)=O` [Example 201] and `CN(C[C@@H](NC(=O)N[C@H](C(=O)N1C[C@H]2[C@@H]([C@H]1C(=O)N[C@@H](CC(F)F)C(=O)NCCc1cccnc1)C2(C)C)C(C)(C)C)C(C)(C)C)S(C)(=O)=O` [Example 236] cannot be ordered by pKi: over 7.00 for the first, over 7.00 for the second.

`CN(C[C@@H](NC(=O)N[C@H](C(=O)N1C[C@H]2[C@@H]([C@H]1C(=O)N[C@@H](CC(F)F)C(=O)NCCc1ccc3c(c1)OCO3)C2(C)C)C(C)(C)C)C(C)(C)C)S(C)(=O)=O` [Example 272] showed a pKi of over 7.00.
